Assay results: PubChem BioAssay AID1627 (PCMD, 2009)
Inconclusive results are not listed. Calls of active or inactive are those of the source. No rule for the calls is given here.

molecular target: Procathepsin L (Homo sapiens) (UniProt P07711); test: cathepsin L inhibition with added cysteine, dose response, biochemical, cysteine present (AID 1627); conditions: purified cathepsin L, fluorogenic substrate
Sequence (P07711 114-288 limits assumed): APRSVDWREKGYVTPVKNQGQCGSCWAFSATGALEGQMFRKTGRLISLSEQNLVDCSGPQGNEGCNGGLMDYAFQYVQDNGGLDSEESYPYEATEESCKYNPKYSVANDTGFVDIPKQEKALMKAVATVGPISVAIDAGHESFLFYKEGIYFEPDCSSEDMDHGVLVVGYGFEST
Sequence (P07711 292-333 limits assumed): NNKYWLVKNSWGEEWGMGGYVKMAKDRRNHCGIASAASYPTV

| SMILES | IC50 |
| --- | --- |
| COc1ccc(OC)c(C2C(C#N)=C(N)Oc3cc(C)n(Cc4ccccn4)c(=O)c32)c1 (stereo not given) | > 50 µM (inactive) |
| N#CC1=C(N)Oc2c(sc3ccccc23)C1c1ccco1 (stereo not given) | > 50 µM (inactive) |
| CN1CCc2c(sc3ncn4nc(-c5ccccc5O)nc4c23)C1 | 32 µM |
| CC(=O)Nc1nc2n(n1)C(c1ccc(F)cc1)C=C(c1ccccc1)N2 (stereo not given) | > 50 µM (inactive) |
| O=S(=O)(/N=S1/CC=CCN1S(=O)(=O)c1ccccc1)c1ccccc1 (stereo not given) | > 50 µM (inactive) |
| CC(=O)c1c(O)n(C)c(=S)n(-c2ccccc2)c1=O | > 50 µM (inactive) |
| CC1=C(C(=O)Nc2ccc(F)cc2)C(c2cccc(C)c2)n2nc(CCCO)nc2N1 (stereo not given) | > 50 µM (inactive) |
| CCCCOc1ccc(C2C3CN(C(=O)OCC)CC=C3C(C#N)=C(N)C2(C#N)C#N)cc1OC (stereo not given) | > 50 µM (inactive) |
| CCCCc1[nH]nc2c1C1(C(=O)N(CC)c3ccccc31)C(C#N)=C(N)O2 (stereo not given) | > 50 µM (inactive) |
| Nc1nc2n(n1)C1(CCCCC1)C1=C(CCCC1)N2 | > 50 µM (inactive) |
